Reference: PMC8673761, “CLN7 is an organellar chloride channel regulating lysosomal function” (Science Advances, 2021)
Positions count from the first letter of the chain named.

Legend:
hCLN7 (EGFP-CLN7, MFSD8) [1] = molecular target: T1, hCLN7 (EGFP-CLN7, MFSD8) (Homo sapiens, UniProt Q8NHS3, L13A/L14A); experiment: whole-cell patch clamp in HeLa, Cl- current; assay type: cell-based; conditions: EGFP-tagged, plasma membrane-targeted; bath 150 mM HCl pH 4.6 (NMDG), pipette pH 7.2
T1 construct: full length, 518 residues, N-terminal EGFP tag kept (pEGFP-C2); expressed in HEK293T (endolysosomes); PM-targeted mutant in HeLa
T1 sequence (Q8NHS3 1-518 L13A/L14A): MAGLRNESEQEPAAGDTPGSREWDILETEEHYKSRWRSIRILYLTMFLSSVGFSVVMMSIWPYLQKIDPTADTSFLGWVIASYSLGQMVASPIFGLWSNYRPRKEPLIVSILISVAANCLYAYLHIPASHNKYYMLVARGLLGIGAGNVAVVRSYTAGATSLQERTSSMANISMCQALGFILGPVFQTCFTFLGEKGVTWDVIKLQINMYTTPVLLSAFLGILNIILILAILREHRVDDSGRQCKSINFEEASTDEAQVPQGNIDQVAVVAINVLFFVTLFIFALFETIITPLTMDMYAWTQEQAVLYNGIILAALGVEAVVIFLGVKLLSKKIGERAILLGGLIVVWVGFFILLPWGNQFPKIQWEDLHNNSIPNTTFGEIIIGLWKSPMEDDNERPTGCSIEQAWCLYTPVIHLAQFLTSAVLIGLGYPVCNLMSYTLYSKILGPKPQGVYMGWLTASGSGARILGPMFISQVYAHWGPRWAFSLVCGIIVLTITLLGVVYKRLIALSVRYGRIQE

[2] = molecular target: T2, YCR023C (yeast CLN7 homolog) (Saccharomyces cerevisiae, UniProt P25351); experiment: whole-cell patch clamp in HeLa, Cl- current; assay type: cell-based, Homo sapiens; conditions: EGFP-tagged; bath 150 mM HCl pH 4.6 (NMDG), pipette pH 7.2
T2 construct: full length, codon-optimised synthetic gene, N-terminal EGFP tag kept (pEGFP-C1); expressed in HeLa cells
T2 sequence (P25351 1-611): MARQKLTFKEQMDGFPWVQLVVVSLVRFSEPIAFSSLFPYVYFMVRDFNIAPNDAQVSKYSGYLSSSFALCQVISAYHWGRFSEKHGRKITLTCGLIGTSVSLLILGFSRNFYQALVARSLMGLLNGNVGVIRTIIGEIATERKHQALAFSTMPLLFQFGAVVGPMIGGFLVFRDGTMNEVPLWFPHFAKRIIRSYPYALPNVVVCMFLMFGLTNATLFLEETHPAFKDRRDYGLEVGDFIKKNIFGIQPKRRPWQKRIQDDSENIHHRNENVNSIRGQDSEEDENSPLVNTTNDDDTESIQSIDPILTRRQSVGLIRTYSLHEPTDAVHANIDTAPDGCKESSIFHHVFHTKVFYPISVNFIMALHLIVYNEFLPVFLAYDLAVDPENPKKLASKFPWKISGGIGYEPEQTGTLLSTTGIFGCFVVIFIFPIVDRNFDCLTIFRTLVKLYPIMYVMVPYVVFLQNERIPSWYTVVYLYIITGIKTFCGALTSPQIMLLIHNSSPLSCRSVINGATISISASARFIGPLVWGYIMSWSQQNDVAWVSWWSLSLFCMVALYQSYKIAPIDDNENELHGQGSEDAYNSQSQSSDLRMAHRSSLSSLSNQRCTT

hCLN7 (EGFP-CLN7, MFSD8) [3] = molecular target: T3, hCLN7 (EGFP-CLN7, MFSD8) (Homo sapiens, UniProt Q8NHS3); experiment: whole-endolysosomal patch clamp, Cl- current; assay type: cell-based
T3 construct: full length, 518 residues, N-terminal EGFP tag kept (pEGFP-C2); expressed in HEK293T (endolysosomes); PM-targeted mutant in HeLa
T3 sequence (Q8NHS3 1-518): T1 sequence (Q8NHS3 1-518 L13A/L14A) with A13L, A14L

| Structure (SMILES) | whole-cell patch clamp in HeLa, Cl- current (hCLN7 (EGFP-CLN7, MFSD8) [1]) | whole-cell patch clamp in HeLa, Cl- current [2] | IC50 (hCLN7 (EGFP-CLN7, MFSD8) [3]) |
| --- | --- | --- | --- |
| O=C(O)c1cc([N+](=O)[O-])ccc1NCCCc1ccccc1 [NPPB, 5-Nitro-2-(3-phenylpropylamino)benzoic acid] | the whole-cell currents were also outward-rectifying and sensitive to pH, DIDS, NFA, and NPPB | including outward rectification and sensitivities to DIDS, NFA, and NPPB | 0.0069 ± 0.00157 µM |
| O=C(O)c1cccnc1Nc1cccc(C(F)(F)F)c1 [NFA] | the whole-cell currents were also outward-rectifying and sensitive to pH, DIDS, NFA, and NPPB | including outward rectification and sensitivities to DIDS, NFA, and NPPB | 42.4 ± 7.13 µM |
| O=S(=O)(O)c1cc(N=C=S)ccc1/C=C/c1ccc(N=C=S)cc1S(=O)(=O)O [DIDS, 4,4‘-diisothiocyano-2,2‘-stilbenedisulfonate] |  | including outward rectification and sensitivities to DIDS, NFA, and NPPB | 32.3 ± 6.08 µM |
